According to patent publication US20230233569A1 (Revolution Medicines, Inc., priority 2020, published 2023):

Legend:
[1] = molecular target: T1, KRAS G12D (Homo sapiens, UniProt P01116+P62937, G12D); assay: Ras-Raf disruption / FRET / MOA assay (BRAF RBD); format: biochemical; settings: Ras-Raf disruption, with Cyclophilin A; read-out: KRAS G12D FRET data IC50
Outline: (§1)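 TR-FRET in 25 mM HEPES pH 7.3, 100 mM NaCl, 5 mM MgCl2, 0.1% BSA, 0.002% Tween20 with 25 μM Cyclophilin A, 12.5 nM His6-Ras-GMPPNP, 50 nM GST-BRAF RBD; compound 10-point 3-fold series from 30 μM. After 3 h at 25 °C, Eu anti-His/APC anti-GST added for 1.5 h; IC50 from ratio decrease versus DMSO.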

[2] = molecular target: T2, KRAS G12S (Homo sapiens, UniProt P01116+P62937, G12S); assay: Ras-Raf disruption / FRET / MOA assay (BRAF RBD); format: biochemical; settings: Ras-Raf disruption, with Cyclophilin A; read-out: KRAS G12S FRET data IC50
T2 sequence (P01116 1-169 isoform P01116-2 G12S limits assumed): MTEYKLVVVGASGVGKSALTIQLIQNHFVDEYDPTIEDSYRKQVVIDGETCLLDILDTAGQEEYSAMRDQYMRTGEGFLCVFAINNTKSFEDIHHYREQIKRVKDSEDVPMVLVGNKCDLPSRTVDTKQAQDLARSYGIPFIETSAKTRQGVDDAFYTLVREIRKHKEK
T2 sequence (P62937 whole entry): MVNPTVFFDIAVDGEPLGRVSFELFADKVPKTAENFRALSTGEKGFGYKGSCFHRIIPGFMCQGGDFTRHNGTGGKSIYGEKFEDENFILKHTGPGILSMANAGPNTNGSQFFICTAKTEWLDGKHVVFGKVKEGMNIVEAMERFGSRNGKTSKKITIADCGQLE
Outline: as §1

[3] = molecular target: T3, KRAS G12V (Homo sapiens, UniProt P01116+P62937, G12V); assay: Ras-Raf disruption / FRET / MOA assay (BRAF RBD); format: biochemical; settings: Ras-Raf disruption, with Cyclophilin A; read-out: KRAS G12V FRET data IC50
T3 sequence (P01116 1-169 isoform P01116-2 G12V limits assumed): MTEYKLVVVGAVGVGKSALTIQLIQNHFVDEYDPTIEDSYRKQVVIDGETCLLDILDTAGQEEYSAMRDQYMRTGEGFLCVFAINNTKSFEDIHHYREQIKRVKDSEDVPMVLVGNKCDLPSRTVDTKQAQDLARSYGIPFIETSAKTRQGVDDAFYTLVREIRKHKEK
T3 sequence (P62937 whole entry): as the sequence (P62937 whole entry) above
Outline: as §1

[4] = molecular target: T4, KRAS G13C (Homo sapiens, UniProt P01116+P62937, G13C); assay: Ras-Raf disruption / FRET / MOA assay (BRAF RBD); format: biochemical; settings: Ras-Raf disruption, with Cyclophilin A; read-out: KRAS G13C FRET data IC50
Outline: as §1
Target sequence in this assay (P01116 1-169 isoform P01116-2 G13C limits assumed): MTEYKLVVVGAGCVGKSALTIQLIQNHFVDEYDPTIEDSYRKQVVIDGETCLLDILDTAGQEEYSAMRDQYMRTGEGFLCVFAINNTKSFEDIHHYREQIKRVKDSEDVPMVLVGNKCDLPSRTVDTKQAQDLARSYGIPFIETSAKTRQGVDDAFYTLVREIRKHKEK
Target sequence in this assay (P62937 whole entry): as the sequence (P62937 whole entry) above

[5] = molecular target: T5, KRAS G13D (Homo sapiens, UniProt P01116+P62937, G13D); assay: Ras-Raf disruption / FRET / MOA assay (BRAF RBD); format: biochemical; settings: Ras-Raf disruption, with Cyclophilin A; read-out: KRAS G13D FRET data IC50
T5 sequence (P01116 1-169 isoform P01116-2 G13D limits assumed): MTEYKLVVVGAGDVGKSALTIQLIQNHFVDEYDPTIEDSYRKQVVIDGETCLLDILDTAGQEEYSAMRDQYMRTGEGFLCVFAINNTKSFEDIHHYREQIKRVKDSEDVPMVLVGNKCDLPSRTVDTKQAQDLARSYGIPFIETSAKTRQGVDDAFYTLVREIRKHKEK
T5 sequence (P62937 whole entry): as the sequence (P62937 whole entry) above
Outline: as §1

[6] = molecular target: T6, KRAS Q61H (Homo sapiens, UniProt P01116+P62937, Q61H); assay: Ras-Raf disruption / FRET / MOA assay (BRAF RBD); format: biochemical; settings: KRAS Q61H; read-out: KRAS Q61H FRET data IC50
T6 sequence (P01116 1-169 isoform P01116-2 Q61H limits assumed): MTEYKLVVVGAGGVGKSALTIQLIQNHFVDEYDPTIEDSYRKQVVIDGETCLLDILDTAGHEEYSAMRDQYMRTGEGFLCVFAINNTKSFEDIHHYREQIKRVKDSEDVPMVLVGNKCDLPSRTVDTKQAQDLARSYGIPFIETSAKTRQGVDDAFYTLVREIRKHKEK
T6 sequence (P62937 whole entry): as the sequence (P62937 whole entry) above
Outline: as §1

[7] = molecular target: T7, KRAS WT (Homo sapiens, UniProt P01116+P62937); assay: Ras-Raf disruption / FRET / MOA assay (BRAF RBD); format: biochemical; settings: Ras-Raf disruption, with Cyclophilin A; read-out: KRAS WT FRET data IC50
T7 sequence (P01116 1-169 isoform P01116-2 limits assumed): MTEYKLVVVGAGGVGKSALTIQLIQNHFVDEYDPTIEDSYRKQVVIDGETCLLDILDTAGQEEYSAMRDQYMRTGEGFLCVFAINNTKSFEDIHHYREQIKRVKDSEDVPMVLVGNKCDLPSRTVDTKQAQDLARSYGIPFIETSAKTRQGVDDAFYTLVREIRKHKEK
T7 sequence (P62937 whole entry): as the sequence (P62937 whole entry) above
Outline: as §1

[8] = molecular target: T8, NRAS G12C (Homo sapiens, UniProt P01111+P62937, G12C); assay: Ras-Raf disruption / FRET / MOA assay (BRAF RBD); format: biochemical; settings: NRAS G12C; read-out: NRAS G12C FRET data IC50
T8 sequence (P01111 whole entry G12C): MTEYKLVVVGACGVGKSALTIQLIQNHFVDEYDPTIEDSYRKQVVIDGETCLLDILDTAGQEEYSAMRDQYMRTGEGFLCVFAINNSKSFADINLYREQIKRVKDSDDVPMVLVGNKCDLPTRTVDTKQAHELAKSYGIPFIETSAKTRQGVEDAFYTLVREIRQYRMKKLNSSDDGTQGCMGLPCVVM
T8 sequence (P62937 whole entry): as the sequence (P62937 whole entry) above
Outline: as §1

[9] = molecular target: T9, NRAS Q61K (Homo sapiens, UniProt P01111+P62937, Q61K); assay: Ras-Raf disruption / FRET / MOA assay (BRAF RBD); format: biochemical; settings: NRAS Q61K; read-out: NRAS Q61K FRET data IC50
T9 sequence (P01111 whole entry Q61K): as the sequence (P01111 whole entry G12C) above, with C12G, Q61K counted along it
T9 sequence (P62937 whole entry): as the sequence (P62937 whole entry) above
Outline: as §1

[10] = molecular target: T10, NRAS Q61R (Homo sapiens, UniProt P01111+P62937, Q61R); assay: Ras-Raf disruption / FRET / MOA assay (BRAF RBD); format: biochemical; settings: NRAS Q61R; read-out: NRAS Q61R FRET data IC50
T10 sequence (P01111 whole entry Q61R): as the sequence (P01111 whole entry G12C) above, with C12G, Q61R counted along it
T10 sequence (P62937 whole entry): as the sequence (P62937 whole entry) above
Outline: as §1

[11] = molecular target: T11, NRAS WT (Homo sapiens, UniProt P01111+P62937); assay: Ras-Raf disruption / FRET / MOA assay (BRAF RBD); format: biochemical; settings: NRAS WT; read-out: NRAS WT FRET data IC50
T11 sequence (P01111 whole entry): as the sequence (P01111 whole entry G12C) above, with C12G counted along it
T11 sequence (P62937 whole entry): as the sequence (P62937 whole entry) above
Outline: as §1

[12] = molecular target: T12, KRAS G12C (Homo sapiens, UniProt P01116+P62937, G12C); assay: Ras-Raf disruption / FRET / MOA assay (BRAF RBD); format: biochemical; settings: Ras-Raf disruption, with Cyclophilin A; read-out: KRAS G12C FRET data IC50
Outline: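 His6-K-Ras G12C-GMPPNP (12.5 nM), GST-BRAF RBD (50 nM) and tagless Cyclophilin A (25 μM) incubated 3 h at 25 °C with compound (10-point 3-fold series from 30 μM), pH 7.3 HEPES buffer. Anti-His Eu/anti-GST APC added for 1.5 h; decreased TR-FRET ratio vs DMSO gives IC50.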
Target sequence in this assay (P01116 1-169 isoform P01116-2 G12C limits assumed): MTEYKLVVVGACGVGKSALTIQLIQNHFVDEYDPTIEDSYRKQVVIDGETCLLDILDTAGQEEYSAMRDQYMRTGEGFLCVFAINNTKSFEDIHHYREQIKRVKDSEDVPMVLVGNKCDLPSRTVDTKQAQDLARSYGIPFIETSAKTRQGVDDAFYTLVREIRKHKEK
Target sequence in this assay (P62937 whole entry): as the sequence (P62937 whole entry) above

[13] = tested on: Capan-1 (K-Ras G12V); assay: CellTiter-Glo cell viability assay, 5-day treatment; format: cell-based; settings: Homo sapiens, CAPAN-1, 120 h, 5-day treatment; read-out: Capan-1 Cell Viability assay data (K-Ras G12V, IC50)
Outline: (§2)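 Five-day compound treatment of plated cells; luminescent read after ~30 min at RT. Percent-of-DMSO data fit to a four-parameter logistic model.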

[14] = tested on: NCI-H358 (K-Ras G12C); assay: as above; format: cell-based; settings: Homo sapiens, NCI-H358, 120 h, 5-day treatment; read-out: H358 Cell Viability assay data (K-Ras G12C, IC50)
Outline: as §2

[15] = molecular target: T12, KRAS G12C; assay: Disruption of BRAF RBD interaction with Ras (FRET / MOA assay, with Cyclophilin A); format: biochemical; settings: read-out: KRAS G12C FRET data, IC50
Outline: (§3)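 Here, compound titrations (ten points, factor 3, from 30 μM final) act on nucleotide-bound K-Ras and Cyclophilin A, and ternary complex formation disrupts the RAF RBD interaction.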
Target sequence in this assay (P01116 1-169 isoform P01116-2 G12C): as the sequence (P01116 1-169 isoform P01116-2 G12C limits assumed) above
Target sequence in this assay (P62937 whole entry): as the sequence (P62937 whole entry) above

[16] = molecular target: T1, KRAS G12D; assay: as above; format: biochemical; settings: read-out: KRAS G12D FRET data, IC50
Outline: as §3

[17] = molecular target: T2, KRAS G12S; assay: as above; format: biochemical; settings: read-out: KRAS G12S FRET data, IC50
Outline: as §3

[18] = molecular target: T3, KRAS G12V; assay: as above; format: biochemical; settings: KRAS G12V; read-out: KRAS G12V FRET data IC50
Outline: as §3

[19] = molecular target: T4, KRAS G13C; assay: as above; format: biochemical; settings: read-out: KRAS G13C FRET data, IC50
Outline: as §3
Target sequence in this assay (P01116 1-169 isoform P01116-2 G13C): as the sequence (P01116 1-169 isoform P01116-2 G13C limits assumed) above
Target sequence in this assay (P62937 whole entry): as the sequence (P62937 whole entry) above

[20] = molecular target: T5, KRAS G13D; assay: as above; format: biochemical; settings: KRAS G13D; read-out: KRAS G13D FRET data IC50
Outline: as §3

[21] = molecular target: T7, KRAS WT; assay: as above; format: biochemical; settings: KRAS WT; read-out: KRAS WT FRET data IC50
Outline: as §3

[22] = molecular target: T8, NRAS G12C; assay: as above; format: biochemical; settings: NRAS G12C; read-out: NRAS G12C FRET data IC50
[23] = molecular target: T6, KRAS Q61H; assay: as above; format: biochemical; settings: KRAS Q61H; read-out: KRAS Q61H FRET data IC50
Outline: (§4)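 TR-FRET in 25 mM HEPES pH 7.3, 100 mM NaCl, 5 mM MgCl2, 0.1% BSA: 25 μM Cyclophilin A, 12.5 nM His6-Ras-GMPPNP, 50 nM GST-BRAF RBD with compound (10-point 3-fold series from 30 μM), 3 h at 25° C. Anti-His Eu/anti-GST APC added, 1.5 h more; IC50 from decreased FRET ratio versus DMSO.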

[24] = molecular target: T9, NRAS Q61K; assay: as above; format: biochemical; settings: NRAS Q61K; read-out: NRAS Q61K FRET data IC50
Outline: as §4

[25] = molecular target: T10, NRAS Q61R; assay: as above; format: biochemical; settings: NRAS Q61R; read-out: NRAS Q61R FRET data IC50
Outline: as §4

[26] = molecular target: T11, NRAS WT; assay: as above; format: biochemical; settings: NRAS WT; read-out: NRAS WT FRET data IC50
Outline: as §4

T1 sequence (P01116 1-169 isoform P01116-2 G12D limits assumed): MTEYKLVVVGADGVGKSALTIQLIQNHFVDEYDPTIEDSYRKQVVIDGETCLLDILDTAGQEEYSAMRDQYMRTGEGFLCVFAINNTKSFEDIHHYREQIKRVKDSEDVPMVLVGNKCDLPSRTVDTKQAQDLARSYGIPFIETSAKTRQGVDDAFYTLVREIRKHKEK
T1 sequence (P62937 whole entry): as the sequence (P62937 whole entry) above

Compound | IC50 [1] | IC50 [2] | IC50 [3] | IC50 [4] | IC50 [5] | IC50 [6] | IC50 [7] | IC50 [8] | IC50 [9] | IC50 [10] | IC50 [11] | IC50 [12] | other results
CCn1c(-c2cccnc2[C@H](C)OC)c2c3cc(ccc31)-c1cc(O)cc(c1)C[C@H](NC(=O)[C@H](C(C)C)N(C)C(=O)[C@@H]1CCN(C(=O)[C@H]3CN3)C1)C(=O)N1CCC[C@H](N1)C(=O)OCC(C)(C)C2 (atropisomer, axis not shown) [Example 186] | 10 to 100 nM | 10 to 100 nM | 10 to 100 nM | 10 to 100 nM | 10 to 100 nM | 10 to 100 nM | 10 to 100 nM | < 10 nM | 100 to 1000 nM | 100 to 1000 nM | 10 to 100 nM | < 10 nM | –
CCn1c(-c2cccnc2[C@H](C)OC)c2c3cc(ccc31)-c1cc(O)cc(c1)C[C@H](NC(=O)[C@H](C(C)C)N(C)C(=O)N(C)C1CN(C(=O)[C@H]3CN3)C1)C(=O)N1CCC[C@H](N1)C(=O)OCC(C)(C)C2 (atropisomer, axis not shown) [Example 203] | 100 to 1000 nM | 100 to 1000 nM | 100 to 1000 nM | 10 to 100 nM | 100 to 1000 nM | 10 to 100 nM | 100 to 1000 nM | < 10 nM | 100 to 1000 nM | 100 to 1000 nM | 100 to 1000 nM | < 10 nM | –
CCn1c(-c2cccnc2[C@H](C)OC)c2c3cc(ccc31)-c1cc(O)cc(c1)C[C@H](NC(=O)[C@H](C(C)C)N(C)C(=O)N(C)CCN(C)C(=O)[C@H]1CN1)C(=O)N1CCC[C@H](N1)C(=O)OCC(C)(C)C2 (atropisomer, axis not shown) [Example 204] | 100 to 1000 nM | 10 to 100 nM | 10 to 100 nM | 10 to 100 nM | 10 to 100 nM | 10 to 100 nM | 10 to 100 nM | < 10 nM | 100 to 1000 nM | 100 to 1000 nM | 10 to 100 nM | < 10 nM | –
CCn1c(-c2cccnc2[C@H](C)OC)c2c3cc(ccc31)-c1cc(O)cc(c1)C[C@H](NC(=O)[C@H](C(C)C)N(C)C(=O)N1CCN(C(=O)[C@@H]3CN3)CC1=O)C(=O)N1CCC[C@H](N1)C(=O)OCC(C)(C)C2 (atropisomer, axis not shown) [Example 205] | 1000 to 10000 nM | 100 to 1000 nM | 100 to 1000 nM | < 10 nM | 100 to 1000 nM | 10 to 100 nM | 10 to 100 nM | 10 to 100 nM | 100 to 1000 nM | 100 to 1000 nM | 10 to 100 nM | 10 to 100 nM | –
CCn1c(-c2cccnc2[C@H](C)OC)c2c3cc(ccc31)-c1cc(O)cc(c1)C[C@H](NC(=O)[C@H](C(C)C)N(C)C(=O)[C@H]1CCN(C(=O)[C@H]3CN3)[C@H]1C)C(=O)N1CCC[C@H](N1)C(=O)OCC(C)(C)C2 (atropisomer, axis not shown) [Example 206] | 1000 to 10000 nM | 100 to 1000 nM | 100 to 1000 nM | 100 to 1000 nM | 100 to 1000 nM | 100 to 1000 nM | 100 to 1000 nM | 10 to 100 nM | 1000 to 10000 nM | 1000 to 10000 nM | 100 to 1000 nM | 10 to 100 nM | –
CCn1c(-c2cccnc2[C@H](C)OC)c2c3cc(ccc31)-c1csc(n1)C[C@H](NC(=O)[C@H](C(C)C)N(C)C(=O)N1CC(N(C)C(=O)[C@H]3CN3)C1)C(=O)N1CCC[C@H](N1)C(=O)OCC(C)(C)C2 [Example 218] | 1000 to 10000 nM | 100 to 1000 nM | 100 to 1000 nM | 100 to 1000 nM | 100 to 1000 nM | 10 to 100 nM | 100 to 1000 nM | 10 to 100 nM | 10 to 100 nM | 100 to 1000 nM | 100 to 1000 nM | – | –
CCn1c(-c2cccnc2[C@H](C)OC)c2c3cc(ccc31)-c1cccc(c1)C[C@H](NC(=O)[C@H](C1CCCC1)N1CC[C@]3(CCN(C(=O)[C@@H]4N[C@@H]4C4CC4)C3)C1=O)C(=O)N1CCC[C@H](N1)C(=O)OCC(C)(C)C2 [Example 313] | 100 to 1000 nM | 1000 to 10000 nM | 1000 to 10000 nM | 100 to 1000 nM | 1000 to 10000 nM | – | 1000 to 10000 nM | 100 to 1000 nM | 1000 to 10000 nM | 1000 to 10000 nM | 1000 to 10000 nM | 100 to 1000 nM | –
CCn1c(-c2cccnc2[C@H](C)OC)c2c3cc(cnc31)-c1csc(n1)C[C@H](NC(=O)[C@H](C(C)C)N(C)C(=O)N1CC(OC)C1)C(=O)N1CCC[C@H](N1)C(=O)OCC(C)(C)C2 [Example A612] | – | – | – | – | – | – | – | – | – | – | – | – | IC50 [13]: 100 to 1000 nM; IC50 [14]: 100 to 1000 nM; IC50 [15]: 100 to 1000 nM; IC50 [16]: 1000 to 10000 nM; IC50 [17]: 1000 to 10000 nM; IC50 [18]: 1000 to 10000 nM; IC50 [19]: 1000 to 10000 nM; IC50 [20]: 1000 to 10000 nM; IC50 [21]: 1000 to 10000 nM; IC50 [22]: 100 to 1000 nM; IC50 [23]: 100 to 1000 nM; IC50 [24]: 100 to 1000 nM; IC50 [25]: 1000 to 10000 nM; IC50 [26]: 100 to 1000 nM
